The target in experiment [1] is T1, BuChE (Homo sapiens, UniProt P06276).
T1 construct: purchased Aldrich
As to the kind of experiment: biochemical. The following applies: mean ± SD, three independent experiments; read-out: BuChEI IC50. The procedure: (§1) All enzymes and reagents required for the assay were obtained from Aldrich. […] Each well contained 50 µL potassium phosphate buffer (KH2PO4/ K2HPO4, 0.1 M, pH 8), 25 µL sample solution, and 25 µL enzyme (final concentration 0.22 U/mL in buffer). Control experiments were also performed under the same conditions without enzyme. After incubation at room temperature for 15 min, 125 µL DTNB (3 mM in buffer) was added and the characterization of enzymatic reaction was spectrometrically performed at 405 nm followed by the addition of substrate (ATCI 3 mM in water) after 5–10 min. The IC50 values were determined graphically from inhibition curves (log inhibitor concentration vs. percent of inhibition). Also, the same method was used for the BuChE inhibition assay.

In experiment [2] the target is T2, AChE (Electrophorus electricus, UniProt O42275).
T2 construct: purchased Aldrich
As to the kind of experiment: biochemical. The following applies: mean ± SD, three independent experiments; read-out: AChEI IC50. Here is the method: as §1

Experiment [3] deals with Aβ1-42 (Homo sapiens, UniProt P05067). As to the kind of experiment: biochemical. The conditions noted are these: read-out: % Inhibition self-induced Aβ1–42 aggregation. The procedure: (§2) Inhibition of Aβ1-42 self-aggregation was measured by ThT fluorescence assay. The details of the method were reported in our previous study. To study Aβ42 aggregation inhibition, a reported method, based on the fluorescence emission of ThT was followed. Briefly, the mixtures of Aβ1-40 peptide (Bachem company, Switzerland) and AChE (Sigma, Electrophorus electricus), in the presence or absence of the test inhibitor were incubated for 24 h at room temperature.

Experiment [4] has as its target AChE-induced Aβ1-40 peptide aggregation (Homo sapiens, UniProt P05067). The experiment is described as follows: biochemical. The conditions noted are these: read-out: % Inhibition AChE-induced Aβ aggregation. The procedure: as §2
In experiment [5] the target is T1, BuChE. Also noted: method as in PMID 29421707, PMID 27914694, PMID 31327094, doi:10.1007/s00044-018-2187-8, PMID 25531792. The conditions noted are these: literature compounds of Fig. 1; read-out: BuChEI, IC50; cited from earlier work.
For experiment [6], the target named is T2, AChE. Set-up: method as in PMID 29421707, PMID 27914694, PMID 25531792. The following applies: literature compounds of Fig. 1; read-out: AChEI, IC50; cited from earlier work.
Experiment [7] deals with Aβ. Also noted: method as in PMID 29407958, PMID 29763808, PMID 32131034. The following applies: at 25 μM; cited from earlier work.
In experiment [8] the test system is Aβ. Also noted: method as in PMID 29407958, PMID 29763808, PMID 32131034. The conditions noted are these: at 100 μM; cited from earlier work.
Experiment [9] concerns neuronal cell line. Also noted: method as in PMID 29107423. The conditions noted are these: cited from earlier work.

Structures are written as SMILES. Read-outs that look alike come from different tables or passages of the source.

T1 sequence (P06276 29-602): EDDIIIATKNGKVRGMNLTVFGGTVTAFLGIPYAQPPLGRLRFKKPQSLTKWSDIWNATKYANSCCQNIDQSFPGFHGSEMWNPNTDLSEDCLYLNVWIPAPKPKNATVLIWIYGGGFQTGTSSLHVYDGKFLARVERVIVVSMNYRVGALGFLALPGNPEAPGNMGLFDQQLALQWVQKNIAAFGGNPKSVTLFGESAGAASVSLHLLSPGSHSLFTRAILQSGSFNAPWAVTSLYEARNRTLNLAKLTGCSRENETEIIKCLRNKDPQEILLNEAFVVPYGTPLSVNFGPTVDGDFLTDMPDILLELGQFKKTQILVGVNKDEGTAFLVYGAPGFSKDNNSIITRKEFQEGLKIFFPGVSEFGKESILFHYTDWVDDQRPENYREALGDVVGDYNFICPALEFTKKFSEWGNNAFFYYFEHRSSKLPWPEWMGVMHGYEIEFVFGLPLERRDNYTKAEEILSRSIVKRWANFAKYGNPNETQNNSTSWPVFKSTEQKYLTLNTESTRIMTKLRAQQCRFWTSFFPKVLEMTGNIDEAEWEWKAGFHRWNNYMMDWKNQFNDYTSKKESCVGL
T2 sequence (O42275 24-633): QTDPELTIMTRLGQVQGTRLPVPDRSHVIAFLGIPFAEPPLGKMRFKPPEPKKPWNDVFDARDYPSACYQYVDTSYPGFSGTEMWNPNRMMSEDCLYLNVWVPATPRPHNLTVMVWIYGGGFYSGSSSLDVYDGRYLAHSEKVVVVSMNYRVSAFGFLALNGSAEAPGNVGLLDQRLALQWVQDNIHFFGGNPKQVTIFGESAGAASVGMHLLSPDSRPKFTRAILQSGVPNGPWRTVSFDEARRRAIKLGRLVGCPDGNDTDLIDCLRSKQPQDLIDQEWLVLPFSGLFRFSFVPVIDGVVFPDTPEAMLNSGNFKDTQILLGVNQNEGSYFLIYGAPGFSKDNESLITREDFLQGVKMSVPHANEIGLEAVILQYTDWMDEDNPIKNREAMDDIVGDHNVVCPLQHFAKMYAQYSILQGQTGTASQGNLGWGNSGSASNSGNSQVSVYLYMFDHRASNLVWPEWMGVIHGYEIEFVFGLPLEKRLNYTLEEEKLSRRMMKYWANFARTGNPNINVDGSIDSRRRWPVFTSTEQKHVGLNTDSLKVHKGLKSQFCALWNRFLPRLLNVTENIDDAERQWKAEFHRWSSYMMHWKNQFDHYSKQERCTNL
Chain of AChE-induced Aβ1-40 peptide aggregation (P05067 672-711): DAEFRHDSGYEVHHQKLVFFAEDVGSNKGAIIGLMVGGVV
Chain of Aβ1-42 (P05067 672-713 limits assumed): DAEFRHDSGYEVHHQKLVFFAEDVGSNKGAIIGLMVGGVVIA

Regarding `CN(C)/C=C/C(=O)c1cc2ccc(OCc3cn(Cc4ccccc4)nn3)cc2oc1=O` [Compound 10a, (E)-7-((1-Benzyl-1H-1,2,3-triazol-4-yl)methoxy)-3-(3-(dimethylamino)acryloyl)-2H-chromen-2-one], the IC50 in experiment [1] is 34.41 ± 0.23 µM; in [2], greater than 100 µM. Turning to `Cc1ccccc1Cn1cc(COc2ccc3cc(C(=O)/C=C/N(C)C)c(=O)oc3c2)nn1` [Compound 10b, (E)-3-(3-(Dimethylamino)acryloyl)-7-((1-(2-methylbenzyl)-1H-1,2,3-triazol-4-yl)methoxy)-2H-chromen-2-one], the figures for the IC50 in experiment [1] and in [2] were 35.73 ± 0.21 µM and greater than 100 µM, respectively. In the case of `Cc1ccc(Cn2cc(COc3ccc4cc(C(=O)/C=C/N(C)C)c(=O)oc4c3)nn2)cc1` [Compound 10c, (E)-3-(3-(Dimethylamino)acryloyl)-7-((1-(4-methylbenzyl)-1H-1,2,3-triazol-4-yl)methoxy)-2H-chromen-2-one], the IC50 in [1] and in [2] was greater than 100 µM throughout. `COc1cccc(Cn2cc(COc3ccc4cc(C(=O)/C=C/N(C)C)c(=O)oc4c3)nn2)c1` [Compound 10d, (E)-3-(3-(Dimethylamino)acryloyl)-7-((1-(3-methoxybenzyl)-1H-1,2,3-triazol-4-yl)methoxy)-2H-chromen-2-one]: the half-maximal inhibitory concentration (IC50) in experiment [1] is 23.44 ± 0.07 µM; in experiment [2], greater than 100 µM. Take `CN(C)/C=C/C(=O)c1cc2ccc(OCc3cn(Cc4ccccc4F)nn3)cc2oc1=O` [Compound 10e, (E)-3-(3-(Dimethylamino)acryloyl)-7-((1-(2-fluorobenzyl)-1H-1,2,3-triazol-4-yl)methoxy)-2H-chromen-2-one]: the IC50 in [1] and in [2] was greater than 100 µM throughout.

With `CN(C)/C=C/C(=O)c1cc2ccc(OCc3cn(Cc4cccc(F)c4)nn3)cc2oc1=O` [Compound 10f, (E)-3-(3-(Dimethylamino)acryloyl)-7-((1-(3-fluorobenzyl)-1H-1,2,3-triazol-4-yl)methoxy)-2H-chromen-2-one], the IC50 was 59.58 ± 0.05 µM in experiment [1] and greater than 100 µM in [2]. With `CN(C)/C=C/C(=O)c1cc2ccc(OCc3cn(Cc4ccc(F)cc4)nn3)cc2oc1=O` [Compound 10g, (E)-3-(3-(Dimethylamino)acryloyl)-7-((1-(4-fluorobenzyl)-1H-1,2,3-triazol-4-yl)methoxy)-2H-chromen-2-one], the IC50 in [1] and in [2] was greater than 100 µM each time. With `CN(C)/C=C/C(=O)c1cc2ccc(OCc3cn(Cc4ccccc4Cl)nn3)cc2oc1=O` [Compound 10i, (E)-7-((1-(2-Chlorobenzyl)-1H-1,2,3-triazol-4-yl)methoxy)-3-(3-(dimethylamino)acryloyl)-2H-chromen-2-one], the IC50 in [1] and in [2] was greater than 100 µM in each case. Turning to `CN(C)/C=C/C(=O)c1cc2ccc(OCc3cn(Cc4ccc(Cl)cc4)nn3)cc2oc1=O` [Compound 10j, (E)-7-((1-(4-Chlorobenzyl)-1H-1,2,3-triazol-4-yl)methoxy)-3-(3-(dimethylamino)acryloyl)-2H-chromen-2-one], the IC50 in experiment [1] and in [2] was greater than 100 µM throughout. Consider `CN(C)/C=C/C(=O)c1cc2ccc(OCc3cn(Cc4ccccc4Br)nn3)cc2oc1=O` [Compound 10k, (E)-7-((1-(2-Bromobenzyl)-1H-1,2,3-triazol-4-yl)methoxy)-3-(3-(dimethylamino)acryloyl)-2H-chromen-2-one], for which the IC50 in experiment [1] and in experiment [2] was greater than 100 µM in each case. As to `CN(C)/C=C/C(=O)c1cc2ccc(OCc3cn(Cc4cccc(Br)c4)nn3)cc2oc1=O` [Compound 10l, (E)-7-((1-(3-Bromobenzyl)-1H-1,2,3-triazol-4-yl)methoxy)-3-(3-(dimethylamino)acryloyl)-2H-chromen-2-one], the results for the IC50 in [1] and in [2] were 65.96 ± 0.004 µM and greater than 100 µM, respectively. Taken in the same sequence, the figures for `CN(C)/C=C/C(=O)c1cc2ccc(OCc3cn(Cc4ccc(Br)cc4)nn3)cc2oc1=O` [Compound 10m, (E)-7-((1-(4-Bromobenzyl)-1H-1,2,3-triazol-4-yl)methoxy)-3-(3-(dimethylamino)acryloyl)-2H-chromen-2-one] were greater than 100 µM and greater than 100 µM. Regarding `Nc1c2c(nc3ccccc13)CCCC2` [Tacrine, reference compound], the inhibition at 10 µM in [3] amounted to 7.6 ± 1.4%. In addition, the inhibition at 100 µM in [4] is 6.7 ± 0.9%. `O=C(NCc1cc[n+](Cc2cccc(F)c2)cc1)c1cc2ccccc2oc1=O` [compound A]: the IC50 in experiment [5] is 12.2 µM. Consider `COc1ccc(Cn2cc(COc3ccc4ccc(=O)oc4c3)nn2)cc1` [compound B], for which the IC50 in [5] was 1.1 µM; in [6], 3.4 µM.

For the molecule `Clc1ccc(Cn2cc(CSc3nnc(-c4ccccc4)c(-c4ccccc4)n3)nn2)cc1` [compound C], in experiment [5], the IC50 is 6.41 µM. With `CN(C)CCC(=O)c1ccc(-c2ccc(C(=O)CCN(C)C)cc2)cc1` [compound D], the IC50 in experiment [5] is 0.32 µM; in experiment [6], 19.9 µM.

For the molecule `Cc1cc(=O)oc2cc(OCCCCSC(=S)N3CCCCC3)ccc12` [compound E], in experiment [7], the Aß aggregation inhibition was 40.19%. As for `COc1ccc(-c2cc3ccc(OCCCn4cc(CNC(=O)CCCCC5CCSS5)nn4)cc3oc2=O)cc1OC` (centres unmarked) [compound F], in experiment [8], the “Aß self aggregation inhibition” value was 51.2%.

For `N=c1oc2ccccc2cc1C(=O)Nc1cc(Br)ccc1NCc1cn(CCC2C(=O)c3ccccc3C2=O)nn1` [compound G], in [9], the IC50 was 7.9 µM.

A word on the IC50: it is the concentration that gives 50% inhibition. As usually defined, the inhibition is the share of the control response that was lost under treatment.

Source of the values: PMC7592376, “Design and synthesis of multi-target directed 1,2,3-triazole-dimethylaminoacryloyl-chromenone derivatives with potential use in Alzheimer's disease” (BMC Chemistry, 2020).
